Tests used:
PqsR = target: T1, PqsR (Pseudomonas aeruginosa, UniProt Q9I4X0); test: PqsR inverse agonistic activity, reporter gene assay in E. coli; assay type: cell-based
T1 construct: expressed in transfected cells; host or cells: Escherichia coli DH5a carrying pEAL08-2
Procedure: Inhibition of pqsR-dependent gene expression of test compounds was determined in an E. coli based-galactosidase reporter gene assay. Escherichia coli DH5a was transfected with pEAL08-2 plasmid encoding pqsR under control of promoter tac and β-galactosidase reporter gene lacZ under control of promoter pqsA. Antagonistic effects of compounds were evaluated in the presence of/in competition to 50 nM PQS. A positive control was used to ensure the reliability of individual assays. First, PQS was diluted in methanol and added to the wells of a glass coated 96-deep-well plate, and the solvent was evaporated. Then, compounds were added in 5 μL DMSO to final concentrations of 0.001-10 μM. Overnight cultures of E. coli DH5a×pEAL08-2 were diluted 1:100 in LB medium with ampicillin (50 μg/ml) and incubated at 37° C. with shaking until it reached an OD600 of 0.2. Finally, 995 μL of culture was added to each well and the β-galactosidase activity was determined by ortho-nitrophenyl-β-galactoside conversion in permeabilized cells after a 2.5 h incubation period (37° C., 180 rpm). OD600, OD420, and OD550 were measured using POLARstar Omega (BMG Labtech, Ortenberg, Germany), and the activity was expressed as ratio of the slope of B-galactosidase activity between basal control (no PQS) and solvent control. IC50 values of antagonists were determined by variation of the concentration of the test compounds.

[1] = Kinetic Turbidimetric Aqueous Solubility; assay type: physicochemical; conditions: aqueous buffer, kinetic from dmso stock, PBS buffer, room temperature
Procedure: Kinetic Turbidimetric Aqueous Solubility at room temperature for 5 min. Test compound was diluted in PBS buffer to give a range of concentrations (typically 0.4, 2, 4, 20, 40, 100, and 200 μM, final DMSO concentration 2%) and incubated at room temperature for 5 min. Absorbance was measured at a wavelength of 620 nm and the solubility was estimated from the concentration of test compound that produces an increase in absorbance above the vehicle control (i.e., […]). Data was analyzed by fitting a four parameter sigmoidal function to the measured and normalized absorbances and AUC calculation providing access to Log S (decadic logarithm of the solubility).

[2] = test system: P. aeruginosa pyocyanin production; test: Pyocyanin assay; assay type: cell-based; conditions: Pseudomonas aeruginosa, PA14, 16 h, read-out: IC50-value towards pyocyanin production, PA14 in PPGAS medium, 16 h
Procedure: Inhibition of P. aeruginosa pyocyanin production by compounds was determined photometrically as described before. In short, an overnight culture of PA14 in PPGAS medium was washed, diluted in medium to a start OD600 of 0.02, and incubated for 16 h (37° C., 200 rpm, relative humidity 75%) in the presence of test compounds. Then, cultures were extracted with chloroform and re-extracted with 0.2 M HCl. Protonated red colored pyocyanin was determined by measuring OD520 and normalizing to OD600.

T1 sequence (Q9I4X0 whole entry): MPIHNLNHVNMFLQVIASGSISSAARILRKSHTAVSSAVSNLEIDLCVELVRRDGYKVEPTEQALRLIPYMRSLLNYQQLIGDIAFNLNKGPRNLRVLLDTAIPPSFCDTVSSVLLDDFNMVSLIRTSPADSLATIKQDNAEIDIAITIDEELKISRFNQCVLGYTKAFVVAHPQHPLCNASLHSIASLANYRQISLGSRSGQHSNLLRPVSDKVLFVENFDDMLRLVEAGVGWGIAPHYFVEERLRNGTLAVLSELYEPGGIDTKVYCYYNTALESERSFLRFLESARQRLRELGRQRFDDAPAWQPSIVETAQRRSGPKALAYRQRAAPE

Row | SMILES | IC50 (PqsR) | solubility at 5 min [1] | IC50 [2]
1 | Fc1ccccc1Nc1ccc(-n2cc(CNc3ccnc(C(F)(F)F)c3)nn2)cc1 [Compound 01] | ≤ 50 nM | > 50 µM | 201 to 500 nM
2 | FC(F)(F)c1cc(NCc2cn(-c3cccc(Nc4ccccc4)c3)nn2)ccn1 [Compound 02] | ≤ 50 nM | > 10 µM | ≤ 100 nM
3 | Fc1cccc(Nc2cccc(-n3cc(CNc4ccnc(C(F)(F)F)c4)nn3)c2)c1 [Compound 03] |  | > 10 µM | 101 to 200 nM
4 | Fc1ccc(Nc2cccc(-n3cc(CNc4ccnc(C(F)(F)F)c4)nn3)c2)cc1 [Compound 05] | ≤ 50 nM | > 25 µM | 201 to 500 nM
5 | Fc1ccc(F)c(Nc2cccc(-n3cc(CNc4ccnc(C(F)(F)F)c4)nn3)c2)c1 [Compound 06] |  | > 10 µM | 101 to 200 nM
6 | Fc1ccc(F)c(Nc2cccc(-n3cc(CNc4cc(Cl)nc(C(F)(F)F)c4)nn3)c2)c1 [Compound 07] |  | > 25 µM | 101 to 200 nM
7 | Nc1cccc(-c2ncc(CNc3cc(Cl)nc(C(F)(F)F)c3)cn2)c1 [Compound 10] |  | ≥ 100 µM | 501 to 1000 nM
8 | Nc1cc(-c2ncc(CNc3cc(Cl)nc(C(F)(F)F)c3)cn2)ccc1Cl [Compound 11] |  | > 25 µM | 501 to 1000 nM
9 | FC(F)(F)c1cc(SCc2nc3cc(Cc4ccccc4)ccc3[nH]2)ccn1 [Compound 12] | ≤ 50 nM | > 25 µM | 201 to 500 nM
10 | Nc1cc(SCc2nc3cc(Nc4ccccc4)ccc3[nH]2)cc(C(F)(F)F)n1 [Compound 13] |  | > 10 µM | 101 to 200 nM
11 | Nc1cc(SCc2nc3cc(Nc4ccccc4)ccc3[nH]2)nc(C(F)(F)F)n1 [Compound 14] | ≤ 50 nM | > 25 µM | 101 to 200 nM
12 | FC(F)(F)c1cc(SCc2nc3ccc(Nc4ccccc4)cc3o2)ccn1 [Compound 15] | 51 to 250 nM |  | 201 to 500 nM
13 | FC(F)(F)c1cc(SCc2nc3ccc(Nc4ccccc4)cc3s2)ccn1 [Compound 16] | 51 to 250 nM |  | 501 to 1000 nM
14 | FC(F)(F)c1cc(SCc2nc3cc(NC4CCCCC4)ccc3[nH]2)ccn1 [Compound 17] | 51 to 250 nM |  | 501 to 1000 nM
15 | FC(F)(F)c1cc(SCc2nc3cc(Nc4ccccn4)ccc3[nH]2)ccn1 [Compound 18] |  | > 50 µM | 201 to 500 nM
16 | FC(F)(F)c1cc(SCc2nc3cc(Nc4cccnc4)ccc3[nH]2)ccn1 [Compound 19] |  | ≥ 100 µM | 501 to 1000 nM
17 | Nc1cc(SCc2nc3cc(Nc4cccnc4)ccc3[nH]2)cc(C(F)(F)F)n1 [Compound 20] |  | > 25 µM | 201 to 500 nM
18 | Fc1ccccc1Nc1ccc2[nH]c(CSc3ccnc(C(F)(F)F)c3)nc2c1 [Compound 22] |  | > 25 µM | 
19 | Fc1cccc(Nc2ccc3[nH]c(CSc4ccnc(C(F)(F)F)c4)nc3c2)c1 [Compound 23] |  | > 10 µM | ≤ 100 nM
20 | Nc1cc(SCc2nc3cc(Nc4cccc(F)c4)ccc3[nH]2)cc(C(F)(F)F)n1 [Compound 24] |  | > 10 µM | ≤ 100 nM
21 | Fc1ccc(Nc2ccc3[nH]c(CSc4ccnc(C(F)(F)F)c4)nc3c2)cc1 [Compound 26] |  | > 25 µM | 
22 | FC(F)(F)c1cc(SCc2nc3cc(Nc4ccccc4Cl)ccc3[nH]2)ccn1 [Compound 27] |  |  | ≤ 100 nM
23 | FC(F)(F)c1cc(SCc2nc3cc(Nc4cccc(Cl)c4)ccc3[nH]2)ccn1 [Compound 28] |  | > 10 µM | 
24 | Cc1ccccc1Nc1ccc2[nH]c(CSc3ccnc(C(F)(F)F)c3)nc2c1 [Compound 29] |  |  | 101 to 200 nM
25 | Cc1cccc(Nc2ccc3[nH]c(CSc4ccnc(C(F)(F)F)c4)nc3c2)c1 [Compound 30] |  | > 10 µM | 101 to 200 nM

Row | SMILES | IC50 (PqsR) | solubility at 5 min [1] | IC50 [2]
26 | Cc1ccc(Nc2ccc3[nH]c(CSc4ccnc(C(F)(F)F)c4)nc3c2)cc1 [Compound 31] |  | > 10 µM | 101 to 200 nM
27 | COc1cccc(Nc2ccc3[nH]c(CSc4ccnc(C(F)(F)F)c4)nc3c2)c1 [Compound 33] |  | > 10 µM | 101 to 200 nM
28 | COc1ccc(Nc2ccc3[nH]c(CSc4ccnc(C(F)(F)F)c4)nc3c2)cc1 [Compound 34] | 51 to 250 nM | > 25 µM | 
29 | NC(=O)c1ccccc1Nc1ccc2[nH]c(CSc3ccnc(C(F)(F)F)c3)nc2c1 [Compound 35] |  | > 50 µM | 101 to 200 nM
30 | FC(F)(F)Oc1ccccc1Nc1ccc2[nH]c(CSc3ccnc(C(F)(F)F)c3)nc2c1 [Compound 38] |  |  | 201 to 500 nM
31 | Cc1ccc(Nc2ccc3[nH]c(CSc4ccnc(C(F)(F)F)c4)nc3c2)nc1 [Compound 40] |  | > 25 µM | 
32 | Fc1cncc(Nc2ccc3[nH]c(CSc4ccnc(C(F)(F)F)c4)nc3c2)c1 [Compound 41] |  | > 50 µM | 201 to 500 nM
33 | Fc1cccc(F)c1Nc1ccc2[nH]c(CSc3ccnc(C(F)(F)F)c3)nc2c1 [Compound 42] | ≤ 50 nM | > 25 µM | 101 to 200 nM
34 | Fc1cc(F)cc(Nc2ccc3[nH]c(CSc4ccnc(C(F)(F)F)c4)nc3c2)c1 [Compound 43] |  | > 25 µM | 
35 | Fc1ccc(F)c(Nc2ccc3[nH]c(CSc4ccnc(C(F)(F)F)c4)nc3c2)c1 [Compound 44] |  | > 25 µM | 
36 | Fc1cccc(Nc2ccc3[nH]c(CSc4ccnc(C(F)(F)F)c4)nc3c2)c1F [Compound 46] | 51 to 250 nM | > 10 µM | 201 to 500 nM
37 | Fc1ccc(Nc2ccc3[nH]c(CSc4ccnc(C(F)(F)F)c4)nc3c2)cc1F [Compound 47] |  | > 10 µM | ≤ 100 nM
38 | Fc1c(Nc2ccc3[nH]c(CSc4ccnc(C(F)(F)F)c4)nc3c2)cccc1C(F)(F)F [Compound 48] |  |  | 101 to 200 nM
39 | Fc1cc(C(F)(F)F)ccc1Nc1ccc2[nH]c(CSc3ccnc(C(F)(F)F)c3)nc2c1 [Compound 49] |  | > 25 µM | 101 to 200 nM
40 | Fc1ccc(C(F)(F)F)cc1Nc1ccc2[nH]c(CSc3ccnc(C(F)(F)F)c3)nc2c1 [Compound 50] |  |  | 201 to 500 nM
41 | Cc1ccc(Nc2ccc3[nH]c(CSc4ccnc(C(F)(F)F)c4)nc3c2)cc1F [Compound 51] |  |  | ≤ 100 nM
42 | COc1ccc(Nc2ccc3[nH]c(CSc4ccnc(C(F)(F)F)c4)nc3c2)cc1F [Compound 53] |  | > 25 µM | 
43 | COc1cc(F)cc(Nc2ccc3[nH]c(CSc4ccnc(C(F)(F)F)c4)nc3c2)c1 [Compound 54] |  | > 25 µM | 201 to 500 nM
44 | Cc1c(F)cc(Nc2ccc3[nH]c(CSc4ccnc(C(F)(F)F)c4)nc3c2)cc1F [Compound 55] |  | > 10 µM | 101 to 200 nM
45 | Fc1cccc(Nc2cc(F)c3[nH]c(CSc4ccnc(C(F)(F)F)c4)nc3c2)c1 [Compound 57] |  | > 10 µM | ≤ 100 nM
46 | Fc1cc(Nc2cccnc2)cc2nc(CSc3ccnc(C(F)(F)F)c3)[nH]c12 [Compound 58] |  | > 50 µM | 201 to 500 nM
47 | FC(F)(F)c1cc(NCc2nc3cc(Nc4ccccc4)ccc3[nH]2)ccn1 [Compound 60] |  | ≥ 100 µM | 201 to 500 nM
48 | Fc1ccccc1Nc1ccc2[nH]c(COc3ccnc(C(F)(F)F)c3)nc2c1 [Compound 63] |  | > 10 µM | 
49 | Fc1cccc(Nc2ccc3[nH]c(COc4ccnc(C(F)(F)F)c4)nc3c2)c1 [Compound 64] |  | > 25 µM | 201 to 500 nM
50 | FC(F)(F)c1cc(OCc2nc3cc(Nc4ccccc4Cl)ccc3[nH]2)ccn1 [Compound 65] |  |  | 201 to 500 nM
